Consider one molecule from article PMC10508841, “Two jasmonic acid carboxyl methyltransferases in Gossypium hirsutum involved in MeJA biosynthesis may contribute to plant defense” (Frontiers in Plant Science, 2023).

Experiment [1] addresses T1, GhJMT2 (Gossypium hirsutum, UniProt A0A2K9REX3).
T1 construct: gene JMT2; cloning primers encode MEVVQVL... ...PMDVFLF (derived)
T1 sequence (A0A2K9REX3 1-372): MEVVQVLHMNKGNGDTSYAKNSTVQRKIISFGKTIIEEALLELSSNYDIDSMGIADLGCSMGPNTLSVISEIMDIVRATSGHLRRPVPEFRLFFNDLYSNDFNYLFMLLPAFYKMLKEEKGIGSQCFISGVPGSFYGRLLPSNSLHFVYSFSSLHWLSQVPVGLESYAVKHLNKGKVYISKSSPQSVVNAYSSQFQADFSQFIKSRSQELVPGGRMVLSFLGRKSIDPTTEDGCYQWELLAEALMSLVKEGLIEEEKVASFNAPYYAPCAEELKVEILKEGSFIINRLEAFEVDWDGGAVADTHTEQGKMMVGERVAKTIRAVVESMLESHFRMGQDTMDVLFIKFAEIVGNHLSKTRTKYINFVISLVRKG
Briefly: GC-MS product detection, recombinant E. coli supernatant. Type of experiment: biochemical. The settings on record: SAM 1 uL of 100 mM, KCl, 25 °C, 30 min; empty vector control; product MeJA.

The target of experiment [2] is T2, GhJMT1 (Gossypium hirsutum, UniProt A0ACM8RG93).
T2 construct: gene JMT1; cloning primers encode MQVLHMN... ...ALTKKW (derived)
T2 sequence (A0ACM8RG93 1-371): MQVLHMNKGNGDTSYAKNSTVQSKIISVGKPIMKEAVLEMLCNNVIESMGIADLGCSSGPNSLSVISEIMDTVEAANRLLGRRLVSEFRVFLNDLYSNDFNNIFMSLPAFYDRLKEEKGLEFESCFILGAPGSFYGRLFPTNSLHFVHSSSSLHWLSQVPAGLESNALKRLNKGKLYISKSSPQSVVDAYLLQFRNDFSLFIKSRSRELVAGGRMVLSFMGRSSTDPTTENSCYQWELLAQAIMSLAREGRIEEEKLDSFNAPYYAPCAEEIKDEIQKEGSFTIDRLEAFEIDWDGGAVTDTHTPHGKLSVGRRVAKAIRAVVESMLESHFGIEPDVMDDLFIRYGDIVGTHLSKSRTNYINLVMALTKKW
Described as above. Type of experiment: biochemical. The settings on record: SAM 1 uL of 100 mM, KCl, 25 °C, 30 min; empty vector control; product MeJA.

`CC/C=C\C[C@H]1C(=O)CC[C@@H]1CC(=O)O` [jasmonic acid]: the “GC-MS product detection, recombinant E. coli supernatant” value in experiment [1] was “recombinant GhJMT1 and GhJMT2 were both responsible for the conversion of JA to MeJA”; in experiment [2], “recombinant GhJMT1 and GhJMT2 were both responsible for the conversion of JA to MeJA”.
